Results from paper PMC5535840 (International Journal of Molecular Sciences, 2017).
Where two headings read alike, the source gives them in different places.

Experiments:
[1] = molecular target: T1, hMT1; MT1 melatonin receptor (Homo sapiens, UniProt P48039); experiment: […]-GTPγS binding, CHO-K1 membranes; assay type: biochemical; details: read-out: MT1 / pEC50 (converted)
T1 construct: gene MTNR1A

[2] = molecular target: T2, hMT2; MT2 melatonin receptor (Homo sapiens, UniProt P49286); experiment: […]-[…]-iodomelatonin displacement, CHO-K1 membranes; assay type: binding
T2 construct: gene MTNR1B
T2 sequence (P49286 1-362): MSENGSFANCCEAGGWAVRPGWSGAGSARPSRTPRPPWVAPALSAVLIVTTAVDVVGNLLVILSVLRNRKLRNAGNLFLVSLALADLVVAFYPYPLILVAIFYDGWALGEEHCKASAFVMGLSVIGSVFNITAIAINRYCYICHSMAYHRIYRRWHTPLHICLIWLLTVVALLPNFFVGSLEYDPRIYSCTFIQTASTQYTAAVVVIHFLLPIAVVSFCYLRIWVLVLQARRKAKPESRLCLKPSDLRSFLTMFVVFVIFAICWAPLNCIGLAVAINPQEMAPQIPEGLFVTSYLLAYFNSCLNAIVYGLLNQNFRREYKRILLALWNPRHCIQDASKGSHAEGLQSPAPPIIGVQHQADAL

[3] = molecular target: T2, hMT2; MT2 melatonin receptor; experiment: […]-GTPγS binding, CHO-K1 membranes; assay type: biochemical
[4] = molecular target: T1, hMT1; MT1 melatonin receptor; experiment: […]-[…]-iodomelatonin displacement, CHO-K1 membranes; assay type: binding
[5] = radioligand […]-[…]-iodomelatonin
[6] = read-out: MT2 / pEC50 (converted)

T1 sequence (P48039 whole entry): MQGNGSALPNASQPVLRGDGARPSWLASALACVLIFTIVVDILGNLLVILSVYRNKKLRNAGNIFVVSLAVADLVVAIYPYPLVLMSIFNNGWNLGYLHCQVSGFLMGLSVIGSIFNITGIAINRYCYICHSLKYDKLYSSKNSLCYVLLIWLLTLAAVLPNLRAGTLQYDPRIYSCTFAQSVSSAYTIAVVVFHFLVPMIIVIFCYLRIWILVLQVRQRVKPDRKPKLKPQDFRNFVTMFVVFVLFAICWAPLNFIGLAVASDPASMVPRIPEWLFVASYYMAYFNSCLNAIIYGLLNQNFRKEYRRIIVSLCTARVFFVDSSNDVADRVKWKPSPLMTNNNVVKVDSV

| Structure (SMILES) | EC50 [1] | Ki [2, 5] | EC50 [3, 6] | Ki [4, 5] | Ki [4] | EC50 ([3]; read-out: MT1 / pEC50 (converted)) | Ki [2] |
| --- | --- | --- | --- | --- | --- | --- | --- |
| COc1ccc(Cc2cc(OC)c(OC)cc2CC(=O)OC(C)(C)C)cc1OC [DIV4288] | > 10000 nM | 1.4 ± 0.1 nM | 2.04 nM | 1300 ± 97 nM |  |  |  |
| COc1cc(Br)c(Cc2cc(OC)c(OC)cc2CC(=O)OC(C)(C)C)cc1OC [DIV0879] | > 10000 nM | 1.4 ± 0.1 nM | 1.38 nM |  | 1780 ± 118 nM |  |  |
| COc1cc(F)c(Cc2cc(OC)c(OC)cc2CC(=O)OC(C)(C)C)cc1OC [DIV6518] | > 10000 nM | 1.4 ± 0.3 nM | 1.17 nM | 630 ± 55 nM |  |  |  |
| COc1cc(CC(=O)OC(C)(C)C)c(Cc2cc(OC)c(OC)cc2-c2ccccc2)cc1OC [DIV6519] | > 10000 nM | 0.49 ± 0.01 nM |  | 44 ± 7 nM |  | > 10000 nM |  |
| COc1cc(I)c(Cc2cc(OC)c(OC)cc2CC(=O)OC(C)(C)C)cc1OC [DIV0880] | > 10000 nM |  | 0.331 nM |  | 1200 ± 143 nM |  | 1 ± 0.1 nM |
